Each block holds one compound with its values, some of them ahead of it.
Assays:
Histone deacetylase 8 = target: T1, Histone deacetylase 8 (Homo sapiens, UniProt Q9BY41); experiment: Inhibition of human recombinant HDAC8 using BML-KI178-0005 as substrate incubated for 10 mins by fluorescence based assay
T1 sequence (Q9BY41 whole entry): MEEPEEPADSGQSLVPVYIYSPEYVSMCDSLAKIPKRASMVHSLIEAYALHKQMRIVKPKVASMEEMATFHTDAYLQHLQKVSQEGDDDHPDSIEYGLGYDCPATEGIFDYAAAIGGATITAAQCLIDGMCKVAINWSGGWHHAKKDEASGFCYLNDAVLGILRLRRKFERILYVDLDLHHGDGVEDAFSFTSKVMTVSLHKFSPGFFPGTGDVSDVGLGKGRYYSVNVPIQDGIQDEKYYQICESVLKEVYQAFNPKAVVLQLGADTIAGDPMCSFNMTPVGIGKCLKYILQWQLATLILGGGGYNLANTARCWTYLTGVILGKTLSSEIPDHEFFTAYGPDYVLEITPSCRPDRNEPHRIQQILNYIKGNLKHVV

[1] = target: T2, Poly [ADP-ribose] polymerase 1 (Homo sapiens, UniProt P09874); experiment: Inhibition of PARP1 (unknown origin) using NAD+ as substrate incubated for 30 mins by fluorescence based assay
MDA-MB-436 = experiment: Antiproliferative activity against BRCA1 deficient human MDA-MB-436 cells assessed as reduction in cell viability incubated for 96 hrs by MTT assay; assay type: functional, cell-based; settings: MDA-MB-436, 96 h
CDK6/cyclin D3 = CDK6/cyclin D3 (Homo sapiens, UniProt Q00534); experiment: Binding affinity to CDK6/Cyclin D3 (unknown origin) assessed as inhibition constant by radiometric assay; assay type: protein-complex assay
[2] = target: T3, Bromodomain-containing protein 4 (Homo sapiens, UniProt O60885); experiment: Inhibition of BRD4 BD2 (unknown origin)
[3] = target: T3, Bromodomain-containing protein 4; experiment: Inhibition of BRD4 BD1 (unknown origin)
[4] = target: T2, Poly [ADP-ribose] polymerase 1; experiment: Inhibition of PARP1 (unknown origin) incubated for 1 hr by colorimetry
[5] = target: Serine/threonine-protein kinase PLK1 (Homo sapiens, UniProt P53350); experiment: Inhibition of PLK1-PBD (unknown origin) using FITC-GPMQSpTPLNG-OH as substrate incubated for 30 mins by fluorescence polarization assay
MX1 = experiment: Cytotoxicity against human MX1 cells assessed as cell survival incubated for 72 hrs by MTT assay; assay type: functional, cell-based; settings: MX1, 72 h

T2 sequence (P09874 whole entry): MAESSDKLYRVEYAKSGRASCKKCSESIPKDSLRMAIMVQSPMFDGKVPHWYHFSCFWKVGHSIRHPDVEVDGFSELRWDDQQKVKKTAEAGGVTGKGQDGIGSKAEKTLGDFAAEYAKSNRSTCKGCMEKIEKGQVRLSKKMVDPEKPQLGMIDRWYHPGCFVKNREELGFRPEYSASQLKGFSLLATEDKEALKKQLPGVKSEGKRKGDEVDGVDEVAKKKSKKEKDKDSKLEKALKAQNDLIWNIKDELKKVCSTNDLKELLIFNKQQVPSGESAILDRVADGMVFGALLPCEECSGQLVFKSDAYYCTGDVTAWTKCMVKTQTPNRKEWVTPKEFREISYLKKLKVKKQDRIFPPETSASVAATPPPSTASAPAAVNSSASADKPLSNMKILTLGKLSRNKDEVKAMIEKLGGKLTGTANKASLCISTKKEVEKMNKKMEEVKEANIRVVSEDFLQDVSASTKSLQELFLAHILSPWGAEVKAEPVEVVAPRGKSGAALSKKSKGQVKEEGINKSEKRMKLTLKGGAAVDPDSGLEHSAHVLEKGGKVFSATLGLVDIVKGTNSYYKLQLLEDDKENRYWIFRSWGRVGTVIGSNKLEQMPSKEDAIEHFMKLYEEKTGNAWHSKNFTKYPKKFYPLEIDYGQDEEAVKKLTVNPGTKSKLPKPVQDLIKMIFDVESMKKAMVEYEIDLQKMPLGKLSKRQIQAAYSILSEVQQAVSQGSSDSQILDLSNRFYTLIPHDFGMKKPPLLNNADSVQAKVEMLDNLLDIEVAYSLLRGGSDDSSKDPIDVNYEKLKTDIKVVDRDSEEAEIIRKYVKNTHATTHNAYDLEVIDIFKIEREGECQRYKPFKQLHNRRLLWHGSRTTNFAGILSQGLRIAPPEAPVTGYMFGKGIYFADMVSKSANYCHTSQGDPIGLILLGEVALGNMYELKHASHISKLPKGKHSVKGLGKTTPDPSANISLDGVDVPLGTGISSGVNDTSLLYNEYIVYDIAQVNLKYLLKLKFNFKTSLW
CDK6/cyclin D3, sequence (P30281 whole entry): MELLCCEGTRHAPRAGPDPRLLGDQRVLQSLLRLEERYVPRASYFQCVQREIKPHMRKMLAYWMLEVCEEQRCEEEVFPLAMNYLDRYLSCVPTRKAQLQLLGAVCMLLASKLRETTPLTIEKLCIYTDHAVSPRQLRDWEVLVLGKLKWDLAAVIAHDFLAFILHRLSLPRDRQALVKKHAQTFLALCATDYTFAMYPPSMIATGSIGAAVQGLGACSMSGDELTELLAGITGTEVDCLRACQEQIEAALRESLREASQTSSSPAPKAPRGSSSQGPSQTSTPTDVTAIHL
CDK6/cyclin D3, sequence (Q00534 whole entry): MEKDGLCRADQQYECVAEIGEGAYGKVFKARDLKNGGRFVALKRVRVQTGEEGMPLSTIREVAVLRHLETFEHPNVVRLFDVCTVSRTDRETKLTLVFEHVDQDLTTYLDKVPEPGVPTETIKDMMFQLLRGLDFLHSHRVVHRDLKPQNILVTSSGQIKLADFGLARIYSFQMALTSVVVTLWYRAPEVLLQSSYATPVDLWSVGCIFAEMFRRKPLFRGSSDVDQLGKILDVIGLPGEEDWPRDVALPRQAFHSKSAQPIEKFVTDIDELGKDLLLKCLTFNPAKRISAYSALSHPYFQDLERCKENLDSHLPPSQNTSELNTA
Serine/threonine-protein kinase PLK1, sequence (P53350 whole entry): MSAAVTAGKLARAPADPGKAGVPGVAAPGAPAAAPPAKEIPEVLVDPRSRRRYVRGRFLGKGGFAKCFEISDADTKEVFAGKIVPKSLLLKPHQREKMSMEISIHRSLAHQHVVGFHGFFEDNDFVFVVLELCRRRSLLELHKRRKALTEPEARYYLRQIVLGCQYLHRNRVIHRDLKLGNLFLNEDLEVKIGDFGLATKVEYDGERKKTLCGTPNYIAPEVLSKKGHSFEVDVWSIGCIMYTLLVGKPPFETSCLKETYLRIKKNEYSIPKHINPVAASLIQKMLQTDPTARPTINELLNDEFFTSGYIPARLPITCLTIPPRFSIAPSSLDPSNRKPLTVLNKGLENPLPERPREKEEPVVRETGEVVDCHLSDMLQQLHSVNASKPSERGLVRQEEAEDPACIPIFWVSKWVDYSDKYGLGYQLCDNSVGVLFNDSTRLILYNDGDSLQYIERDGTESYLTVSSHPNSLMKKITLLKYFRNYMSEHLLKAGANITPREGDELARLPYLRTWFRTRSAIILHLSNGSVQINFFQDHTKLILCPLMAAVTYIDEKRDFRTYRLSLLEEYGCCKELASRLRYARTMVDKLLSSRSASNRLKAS

Compound: O=C(CCN1CCN(C(=O)Nc2ccnc3ccccc23)CC1)NO
IC50 (Histone deacetylase 8): 1740 nM

Compound: CC(c1nc2c(C(N)=O)cccc2[nH]1)N1CC(=O)N(c2ccc(C(F)(F)F)cc2)C1=S (centres undefined)
IC50 [1]: 25 nM
IC50 (MDA-MB-436): 1000 nM

Compound: C#CCSc1nc2nc(C)cc(Nc3cc(-c4ccccc4)[nH]n3)n2n1
IC50 [2]: 4360 nM
IC50 [3]: 2150 nM

Compound: CC(C)N1CCC(NC(=O)c2cc(Cn3c(=O)[nH]c(=O)c4ccccc43)ccc2F)C1 (centres undefined)
IC50 (MX1): < 3120 nM

Next, values leading:

Ki (CDK6/cyclin D3): 13.4 nM
Compound: CC(=O)N1N=C(c2c(O)c3ccccc3oc2=O)CC1c1ccccc1Cl (centres undefined)

IC50 [4]: 36 nM
Compound: O=C(c1ccc(Cc2n[nH]c(=O)c3cccnc23)cc1)n1cccc1

IC50 [5]: 3370 nM
Compound: O=C(CCNC(=O)c1ccc(CO)cc1)N[C@@H](Cc1cnnn1CCc1ccccc1)C(=O)NCc1cn(CCP(=O)(O)O)nn1

Source: ChEMBL document CHEMBL5126500, “Small-molecule inhibitors of breast cancer-related targets: Potential therapeutic agents for breast cancer” (Eur J Med Chem, 2021)
